Patent US10696615B2, “Prenylated hydroxystilbenes” (The University of Sydney, priority 2011, dated 2020)

Experiments:
[1] = tested on: HL-60 (TB); assay: NCI in vitro cancer screen, Leukemia; type: cell-based, human; conditions: HL-60(TB), Leukemia
[2] = tested on: K-562; assay: NCI in vitro cancer screen, Leukemia; type: cell-based, human; conditions: K-562, Leukemia
[3] = tested on: MOLT-4; assay: NCI in vitro cancer screen, Leukemia; type: cell-based, human; conditions: MOLT-4, Leukemia
[4] = tested on: A549/ATCC; assay: NCI in vitro cancer screen, Non-Small Cell Lung Cancer; type: cell-based, human; conditions: Non-Small Cell Lung Cancer
[5] = tested on: HOP-92; assay: as above; type: cell-based, human; conditions: HOP-92, Non-Small Cell Lung Cancer
[6] = tested on: NCI-H226; assay: as above; type: cell-based, human; conditions: NCI-H226, Non-Small Cell Lung Cancer
[7] = tested on: NCI-H322M; assay: as above; type: cell-based, human; conditions: Non-Small Cell Lung Cancer
[8] = tested on: NCI-H522; assay: as above; type: cell-based, human; conditions: NCI-H522, Non-Small Cell Lung Cancer
[9] = tested on: COLO 205; assay: NCI in vitro cancer screen, Colon Cancer; type: cell-based, human; conditions: COLO 205, Colon Cancer
[10] = tested on: HCT-116; assay: NCI in vitro cancer screen, Colon Cancer; type: cell-based, human; conditions: HCT-116, Colon Cancer
[11] = tested on: HT29; assay: NCI in vitro cancer screen, Colon Cancer; type: cell-based, human; conditions: HT29, Colon Cancer
[12] = tested on: KM12; assay: NCI in vitro cancer screen, Colon Cancer; type: cell-based, human; conditions: KM12, Colon Cancer
[13] = tested on: SW-620; assay: NCI in vitro cancer screen, Colon Cancer; type: cell-based, human; conditions: SW-620, Colon Cancer
[14] = tested on: SF-295; assay: NCI in vitro cancer screen, CNS Cancer; type: cell-based, human; conditions: SF-295, CNS Cancer
[15] = tested on: SF-539; assay: NCI in vitro cancer screen, CNS Cancer; type: cell-based; conditions: SF-539, CNS Cancer
[16] = tested on: SNB-19; assay: NCI in vitro cancer screen, CNS Cancer; type: cell-based, human; conditions: SNB-19, CNS Cancer
[17] = tested on: SNB-75; assay: NCI in vitro cancer screen, CNS Cancer; type: cell-based, human; conditions: SNB-75, CNS Cancer
[18] = tested on: U251; assay: NCI in vitro cancer screen, CNS Cancer; type: cell-based, human; conditions: U251, CNS Cancer
[19] = tested on: MALME-3M; assay: NCI in vitro cancer screen, Melanoma; type: cell-based, human; conditions: MALME-3M, Melanoma
[20] = tested on: UACC-257; assay: NCI in vitro cancer screen, Melanoma; type: cell-based, human; conditions: UACC-257, Melanoma
[21] = tested on: IGROV1; assay: NCI in vitro cancer screen, Ovarian Cancer; type: cell-based, human; conditions: IGROV1, Ovarian Cancer
[22] = tested on: OVCAR-3; assay: NCI in vitro cancer screen, Ovarian Cancer; type: cell-based, human; conditions: OVCAR-3, Ovarian Cancer
[23] = tested on: OVCAR-4; assay: NCI in vitro cancer screen, Ovarian Cancer; type: cell-based, human; conditions: OVCAR-4, Ovarian Cancer
[24] = tested on: OVCAR-5; assay: NCI in vitro cancer screen, Ovarian Cancer; type: cell-based, human; conditions: OVCAR-5, Ovarian Cancer
[25] = tested on: ADR-RES (NCI/ADR-RES); assay: NCI in vitro cancer screen, Ovarian Cancer; type: cell-based, human; conditions: NCI/ADR-RES, Ovarian Cancer
[26] = tested on: ACHN; assay: NCI in vitro cancer screen, Renal Cancer; type: cell-based, human; conditions: Renal Cancer
[27] = tested on: CAKI-1; assay: NCI in vitro cancer screen, Renal Cancer; type: cell-based, human; conditions: CAKI-1, Renal Cancer
[28] = tested on: UO-31; assay: NCI in vitro cancer screen, Renal Cancer; type: cell-based, human; conditions: UO-31, Renal Cancer
[29] = tested on: DU-145; assay: NCI in vitro cancer screen, Prostate Cancer; type: cell-based, human; conditions: DU-145, Prostate Cancer
[30] = tested on: MCF7; assay: NCI in vitro cancer screen, Breast Cancer; type: cell-based, human; conditions: MCF7, Breast Cancer
[31] = tested on: MDA-MB-231 (MDA-MB-231/ATCC); assay: NCI in vitro cancer screen, Breast Cancer; type: cell-based, human; conditions: MDA-MB-231/ATCC, Breast Cancer
[32] = Homo sapiens, read-out: LC50 (the source's name)

CC(C)=CCOc1cc(O)cc(/C=C/c2ccc(O)c(O)c2)c1CC=C(C)C [USYDS14, (E)-2-(3-methyl-2-buten-1-yl)-3-(3-methyl-2-butenyloxy)-3′,4′,5-trihydroxystilbene]
TGI [1]: 16.3 µM
GI50 ([1]; Homo sapiens): 4.06 µM
CC50 [1, 32]: > 100 µM
GI50 ([2]; Homo sapiens, K562): 0.833 µM
CC50 ([2]; Homo sapiens, K562, read-out: LC50 (the source's name)): > 100 µM
TGI [2]: 14.2 µM
GI50 ([3]; Homo sapiens): 4.03 µM
CC50 [3, 32]: > 100 µM
TGI [3]: 21 µM
GI50 ([4]; Homo sapiens): 4.33 µM
CC50 [4, 32]: 45.5 µM
TGI [4]: 16.5 µM
TGI [5]: 7.58 µM
GI50 ([5]; Homo sapiens): 1.49 µM
CC50 [5, 32]: 32.9 µM
GI50 ([6]; Homo sapiens): 1.72 µM
LC50 (50% lethal concentration) ([6]; Homo sapiens): 7.52 µM
TGI [6]: 3.6 µM
GI50 ([7]; Homo sapiens): 12.5 µM
LC50 (50% lethal concentration) ([7]; Homo sapiens): 52.8 µM
TGI [7]: 25.7 µM
GI50 ([8]; Homo sapiens): 0.75 µM
CC50 [8, 32]: 5.85 µM
TGI [8]: 2.26 µM
TGI [9]: 28.5 µM
GI50 ([9]; Homo sapiens): 14.6 µM
CC50 [9, 32]: 55.7 µM
TGI [10]: 16 µM
GI50 ([10]; Homo sapiens): 4.2 µM
LC50 (concentration killing 50% of cells) ([10]; Homo sapiens): 46.6 µM
TGI [11]: 29.1 µM
GI50 ([11]; Homo sapiens, HT-29): 14 µM
CC50 ([11]; Homo sapiens, HT-29, read-out: LC50 (the source's name)): 60.9 µM
GI50 ([12]; Homo sapiens): 3.74 µM
CC50 [12, 32]: 57.4 µM
TGI [12]: 14.4 µM
GI50 ([13]; Homo sapiens): 2.88 µM
CC50 [13, 32]: 63.8 µM
TGI [13]: 16.7 µM
GI50 ([14]; Homo sapiens): 3.91 µM
CC50 [14, 32]: 43.1 µM
TGI [14]: 15.3 µM
GI50 ([15]; Homo sapiens): 2.96 µM
CC50 [15, 32]: 37.8 µM
TGI [15]: 10.5 µM
GI50 ([16]; Homo sapiens): 5.01 µM
CC50 [16, 32]: 52.2 µM
TGI [16]: 20.1 µM
GI50 ([17]; Homo sapiens): 1.79 µM
CC50 [17, 32]: 29.3 µM
TGI [17]: 7.8 µM
GI50 ([18]; Homo sapiens, U-251): 3.09 µM
CC50 ([18]; Homo sapiens, U-251, read-out: LC50 (the source's name)): 39.4 µM
TGI [18]: 12.7 µM
GI50 ([19]; Homo sapiens): 3.14 µM
CC50 [19, 32]: 54.8 µM
TGI [19]: 21.8 µM
GI50 ([20]; Homo sapiens): 10.2 µM
CC50 [20, 32]: 54 µM
TGI [20]: 23.5 µM
GI50 ([21]; Homo sapiens, IGROV-1): 3.65 µM
CC50 ([21]; Homo sapiens, IGROV-1, read-out: LC50 (the source's name)): 65.4 µM
TGI [21]: 13.7 µM
GI50 ([22]; Homo sapiens): 3.52 µM
CC50 [22, 32]: 41.1 µM
TGI [22]: 13.5 µM
GI50 ([23]; Homo sapiens): 2.98 µM
CC50 [23, 32]: 38.6 µM
TGI [23]: 13.6 µM
GI50 ([24]; Homo sapiens): 12.4 µM
CC50 [24, 32]: 53.6 µM
TGI [24]: 25.8 µM
GI50 ([25]; Homo sapiens): 0.78 µM
CC50 [25, 32]: 49.3 µM
TGI [25]: 11.4 µM
GI50 ([26]; Homo sapiens): 2.98 µM
CC50 [26, 32]: 36.5 µM
TGI [26]: 12.5 µM
TGI [27]: 17.5 µM
GI50 ([27]; Homo sapiens): 3.59 µM
CC50 [27, 32]: 45.4 µM
GI50 ([28]; Homo sapiens): 3.71 µM
CC50 [28, 32]: 46.3 µM
TGI [28]: 17.9 µM
TGI [29]: 21.1 µM
GI50 ([29]; Homo sapiens): 8.2 µM
CC50 [29, 32]: 47.5 µM
GI50 ([30]; Homo sapiens): 2.74 µM
CC50 [30, 32]: 41.9 µM
TGI [30]: 11.8 µM
GI50 ([31]; Homo sapiens): 3.15 µM
CC50 [31, 32]: 45.3 µM
TGI [31]: 14.3 µM
